Results published in patent publication US20090143419A1, “METHODS AND COMPOSITIONS FOR CONTROLLING ECTOPARASITES” (HATCHTECH PTY LTD, priority 2005, published 2009).

What was measured:
B. ovis eggs = test: Egg hatching in Bovicola ovis; assay type: in vivo; conditions: 10 mM, 10 eggs per replicate
Method: B. ovis eggs were collected from the wool of sheep that were infested with this parasite. The eggs were collected using forceps and with the aid of a dissecting microscope and placed in 24 well tissue culture plates in duplicate lots of 10 eggs per replicate. The eggs were then exposed to either methanol alone (solvent control) or the test compounds for either 10 minutes or 1 minute or left as untreated controls before being removed from the wells and placed into individual glass vials containing a diet at the base of the tube. The tubes were placed in plastic containers containing a salt solution (to keep humidity constant at 68%) and the containers maintained at a temperature 32° C. The eggs were monitored for hatching over the following 12 days and % hatch inhibition determined in comparison to the controls.

[1] = test system: Helicoverpa armigera eggs (Tatura×Toowoomba strains); test: Egg hatching of Helicoverpa armigera; conditions: for % Inhibition: relative to control
[2] = test system: Plutella xylostella eggs (Waite strain); test: Effect of added metal ions (FeSO4) on inhibition of Plutella xylostella egg hatching; assay type: in vivo; conditions: Table 17
Method: Within 24 hours of collection the following experimental design was chosen. Batches of eggs were exposed to either 10 mM 6,6′-dimethyl-2,2′-dipyridyl or solvent only (methanol) for 2 seconds. All batches of eggs were allowed to air dry for 20 minutes at room temperature. The eggs were then given a 2 second exposure to FeSO4 at either 10, 5 or 1 mM, air dried and put in the incubator at 24° C. and allowed to hatch over the next 6 days. In addition, a positive control of 10 mM 6,6′-dimethyl-2,2′-dipyridyl was set up in which eggs were exposed to this compound for 2 seconds, air dried and placed in the incubator.
Within 24 hours of collection the following experimental design was chosen. Batches of eggs were exposed to 10 mM 5,5′dimethyl-2,2′-dipyridyl or solvent only (methanol) for 2 seconds. All batches of eggs were allowed to air dry for 20 minutes at room temperature. The eggs were then given a 2 second exposure to FeSO4 at 10, 5 or 1 mM, air dried and put in an incubator at 24° C. and allowed to hatch over the next 6 days. In addition, a positive control of 10 mM, 5,5′-dimethyl-2,2′-dipyridyl was set up in which eggs were exposed to this compound for 2 seconds, air dried and placed in the incubator.

lice eggs = test: Time-course in vitro lice egg hatching assay; assay type: in vivo, clothing lice (Pediculus humanus humanus)
[3] = test system: Plutella xylostella eggs (Waite strain); test: Egg hatching of Plutella xylostella
Method: The egg masses were then placed in a humid box at 25 degrees until egg hatch. Control eggs were exposed to absolute methanol as described above. At day 6 post laying the eggs were assessed from the different treatments and the percentage of egg hatch determined relative to the control as shown in Table 9.
Batches of Plutella eggs that were laid on either fine cloth or parafilm were dipped in a specific inhibitor solution for between 2-10 seconds, the excess solution was drained by blotting with dry tissue paper. The egg masses were then placed in a humid box at 25 degrees until egg hatch. Control eggs were exposed to absolute methanol as described above or not treated. At day 6 post laying the eggs were assessed from the different treatments and the percentage of egg hatch determined relative to the controls as shown in Tables 10 and 11.
Batches of Plutella eggs that were laid on fine cloth were dipped in a specific inhibitor solution for approximately 2 seconds, the excess solution was drained by blotting with dry tissue paper. The egg masses were then placed in a humid box at 25 degrees until egg hatch. Control eggs were exposed to absolute methanol as described above or not treated. At day 6 post laying the eggs were assessed from the different treatments and the percentage of egg hatch determined relative to the control as shown in Table 12.
The egg masses were then placed in a humid box at 25 degrees until egg hatch. Control eggs were exposed to absolute ethanol as described above. On day 6 post laying the eggs were assessed from the different treatments and the percentage of egg hatch determined relative to the control.

[4] = Table 14, 1 mM, exposed 2-10 seconds, day 6 post laying
[5] = Table 14, 10 mM, exposed 2-10 seconds, day 6 post laying
[6] = 10 mM inhibitor alone, (+ve) control
[7] = 10 mM inhibitor followed by 2 second exposure to 1 mM FeSO4
[8] = 10 mM inhibitor followed by 2 second exposure to 5 mM FeSO4
[9] = 10 mM inhibitor followed by 2 second exposure to 10 mM FeSO4
[10] = 10 mM inhibitor followed by 2 second exposure to MEOH
[11] = Table 9, 0.001 mM, dipped 2-10 seconds, day 6 post laying
[12] = Table 9, 0.01 mM, dipped 2-10 seconds, day 6 post laying
[13] = Table 9, 0.1 mM, dipped 2-10 seconds, day 6 post laying
[14] = Table 9, 1 mM, dipped 2-10 seconds, day 6 post laying
[15] = Table 9, 10 mM, dipped 2-10 seconds, day 6 post laying
[16] = Table 10, 0.01 mM, eggs laid on cloth
[17] = Table 10, 0.1 mM, eggs laid on cloth
[18] = Table 10, 1 mM, eggs laid on cloth
[19] = Table 10, 10 mM, eggs laid on cloth
[20] = Table 11, 0.01 mM, eggs laid on parafilm
[21] = Table 11, 0.1 mM, eggs laid on parafilm
[22] = Table 11, 1 mM, eggs laid on parafilm

SMILES: Cc1cccc(-c2cccc(C)n2)n1 [6,6′-dimethyl-2,2′-dipyridyl]
- Number unhatched (B. ovis eggs; 1 minute exposure): 10
- Number unhatched (B. ovis eggs; 10 minute exposure): 10
- % Inhibition ([1]; Table 14, 0.001 mM): 0%
- % Inhibition ([1]; Table 14, 0.01 mM): 0%
- % Inhibition ([1]; Table 14, 0.1 mM): 0%
- Number hatched [1, 4]: 4
- Number unhatched [1, 4]: 140
- % Inhibition ([1]; Table 14, 1 mM): 97%
- % Inhibition ([1]; Table 14, 1 mM, listed as 6,6′dimethyl-2,2′dipyridyl): significantly inhibit egg hatching
- Number hatched [1, 5]: 7
- Number unhatched [1, 5]: 98
- % Inhibition ([1]; Table 14, 10 mM): 94%
- % Inhibition ([1]; Table 14, 10 mM, listed as 6,6′dimethyl-2,2′dipyridyl): significantly inhibit egg hatching
- Number hatched ([1]; Table 15, 0.1 mM): 70
- Number unhatched ([1]; Table 15, 0.1 mM): 0
- Number hatched ([1]; Table 15, 1 mM): 2
- Number unhatched ([1]; Table 15, 1 mM): 61
- Number hatched ([1]; Table 15, 10 mM): 3
- Number unhatched ([1]; Table 15, 10 mM): 48
- % Inhibition [2, 6]: 100%
- Number hatched [2, 6]: 0
- Number unhatched [2, 6]: 44
- Number hatched [2, 7]: 33
- Number unhatched [2, 7]: 1
- % Inhibition ([2]; 10 mM inhibitor followed by 2 second exposure to 1 mM FeSO4, relative to the FeSO4 controls): 3%
- Number hatched [2, 8]: 25
- Number unhatched [2, 8]: 0
- % Inhibition ([2]; 10 mM inhibitor followed by 2 second exposure to 5 mM FeSO4, relative to the FeSO4 controls): 0%
- Number hatched [2, 9]: 12
- Number unhatched [2, 9]: 19
- % Inhibition ([2]; 10 mM inhibitor followed by 2 second exposure to 10 mM FeSO4, relative to the FeSO4 controls): 38%
- Number hatched [2, 10]: 3
- Number unhatched [2, 10]: 28
- % Inhibition of lice egg hatching (maximum over the time-course) (lice eggs; 10 mM): 100%
- H (number of eggs successfully hatched) (lice eggs; Table 6, […], per replicate): 0
- Ph (number of eggs partly hatched) (lice eggs; Table 6, […], per replicate): 0
- lice egg hatching (lice eggs; in vivo): completely inhibited
- Number hatched [3, 11]: 11
- Number unhatched [3, 11]: 6
- % Inhibition ([3]; Table 9, 0.001 mM, relative to control (100% MeOH)): 0%
- Number hatched [3, 12]: 13
- Number unhatched [3, 12]: 7
- % Inhibition ([3]; Table 9, 0.01 mM, relative to control (100% MeOH)): 0%
- Number hatched [3, 13]: 23
- Number unhatched [3, 13]: 29
- % Inhibition ([3]; Table 9, 0.1 mM, relative to control (100% MeOH)): 0%
- Number hatched [3, 14]: 0
- Number unhatched [3, 14]: 26
- % Inhibition ([3]; Table 9, 1 mM, relative to control (100% MeOH)): 100%
- % Inhibition ([3]; Table 9, 1 mM, relative to control (100% MeOH), listed as 6,6′dimethyl-2,2′dipyridyl): strong ovicidal effects
- Number hatched [3, 15]: 0
- Number unhatched [3, 15]: 79
- % Inhibition ([3]; Table 9, 10 mM, relative to control (100% MeOH)): 100%
- % Inhibition ([3]; Table 9, 10 mM, relative to control (100% MeOH), listed as 6,6′dimethyl-2,2′dipyridyl): strong ovicidal effects
- Number hatched [3, 16]: 23
- Number unhatched [3, 16]: 4
- % Inhibition ([3]; Table 10, 0.01 mM, eggs laid on cloth, relative to controls): 12%
- Number hatched [3, 17]: 49
- Number unhatched [3, 17]: 49
- % Inhibition ([3]; Table 10, 0.1 mM, eggs laid on cloth, relative to controls): 0%
- Number hatched [3, 18]: 0
- Number unhatched [3, 18]: 23
- % Inhibition ([3]; Table 10, 1 mM, eggs laid on cloth, relative to controls): 100%
- Number hatched [3, 19]: 0
- Number unhatched [3, 19]: 53
- % Inhibition ([3]; Table 10, 10 mM, eggs laid on cloth, relative to controls): 100%
- Number hatched [3, 20]: 92
- Number unhatched [3, 20]: 4
- % Inhibition ([3]; Table 11, 0.01 mM, eggs laid on parafilm, relative to controls): 0%
- Number hatched [3, 21]: 65
- Number unhatched [3, 21]: 70
- % Inhibition ([3]; Table 11, 0.1 mM, eggs laid on parafilm, relative to controls): 7%
- Number hatched [3, 22]: 0
- Number unhatched [3, 22]: 63
- % Inhibition ([3]; Table 11, 1 mM, eggs laid on parafilm, relative to controls): 100%
- Number hatched ([3]; Table 11, 10 mM, eggs laid on parafilm): 0
- % Inhibition ([3]; Table 11, 10 mM, eggs laid on parafilm, relative to controls): 100%
